What is called solubility is how much of the substance goes into solution per volume. High values mean a readily soluble substance, low ones a poorly soluble substance. One may read the IC50 as the concentration that inhibits the measured activity by half. By DC50 is commonly meant the concentration at which degradation of the target reaches its halfway point. A low value points to a more potent degrader. What is called Solubility is the dissolved amount per volume that the medium holds. A high value points to a readily soluble substance.

Structures are written as SMILES. In brackets after ≈: the same amount, converted by molar mass. Read-outs that look alike come from different tables or passages of the source.

Results on 9 compounds are retold here after patent publication US20250236607A1, “CYCLIN-DEPENDENT KINASE 9 (CDK9) DEGRADERS AND METHODS OF USING THEREOF” (OHIO STATE INNOVATION FOUNDATION, priority 2022, published 2025).

The nature of series [1]: Chromatographic log D determination (log k′80). It is filed as physicochemical. The note with it: chromatographic log D, PLRP-S column, pH 7.72. The procedure: Chromatographic Log D Determination. Test samples were prepared from 10 mM stock solutions in DMSO, to make 122 μM solutions in acetonitrile. Retention times were determined on a Shimadzu High Performance Liquid Chromatography (HPLC) system with Agilent PLRP-S column, 100 Å, 5 um particle size, 50×4.6 mm (part no.: PL1512-1500) with 1 mL/min flow rate. A 65 mM aqueous solution of ammonium acetate was prepared in water and diluted with acetonitrile to give 0.1% ammonium acetate 20:80 acetonitrile solution with pH 7.72. Eluents were detected with UV spectrophotometry at 337 nm. As a standard set, the retention times of β-estradiol, nifedipine, quinoline, phenol and 2-nitrophenol were determined (log k′80) and the dead time was extrapolated based on the reported log k′80 values originally reported by Caron et. al (log k′80*). The average value of the dead time for the standard set was 0.3001 minutes. Therefore, for consistency, 0.3 minutes was used as the dead time for all test samples. Experiments were performed in triplicate with a maximum percent standard deviation of 6.85%.

The next series is described as follows: Kinetic solubility assay. As to conditions: kinetic solubility, PBS pH 7.4; for solubility at 1.5 h: phosphate buffered saline, pH 7.4, aqueous buffer, kinetic from dmso stock, Solubility (μM).
Another series has as its system MOLM13 cells. Put plainly: Cytotoxicity against MOLM13 cells. Type of series: cell-based. As to conditions: MOLM13 cells, read-out: IC50. From the text:
(§1) Through amide coupling using I-ethyl-3-carbodiimide hydrochloride (EDC.HCl), the alkynyl derivatives of 4.16, 4.29 and 4.30 were synthesized. Using these VIP152-derivatives, degraders 4.31, 4.33 and 4.34 were synthesized using click chemistry. Degrader 4.32 was also synthesized using amide coupling conditions with (1-[Bis([…])methylene]-1H-1,2,3-triazolo[4,5-b]pyridinium 3-oxide hexafluorophosphate (HATU) and the carboxylic acid 4.28. Scheme 7 illustrates the synthesis of this initial series. The series was evaluated for cytotoxicity against MOLM13 cells (IC50) and for their CDK9 degradation potency (DC50). The results are provided in Table 3.

Another series concerns the target T1, CDK9 (Homo sapiens, UniProt P50750+Q96SW2).
T1 construct: endogenous in cells
Put plainly: CDK9 degradation potency (DC50) of VIP152-based degraders. As to conditions: VIP152-based series. Type of series: cell-based.
Text: as §1

Setting [2] is: Homo sapiens, MOLM-13, cytotoxicity.

T1 sequence (P50750 whole entry): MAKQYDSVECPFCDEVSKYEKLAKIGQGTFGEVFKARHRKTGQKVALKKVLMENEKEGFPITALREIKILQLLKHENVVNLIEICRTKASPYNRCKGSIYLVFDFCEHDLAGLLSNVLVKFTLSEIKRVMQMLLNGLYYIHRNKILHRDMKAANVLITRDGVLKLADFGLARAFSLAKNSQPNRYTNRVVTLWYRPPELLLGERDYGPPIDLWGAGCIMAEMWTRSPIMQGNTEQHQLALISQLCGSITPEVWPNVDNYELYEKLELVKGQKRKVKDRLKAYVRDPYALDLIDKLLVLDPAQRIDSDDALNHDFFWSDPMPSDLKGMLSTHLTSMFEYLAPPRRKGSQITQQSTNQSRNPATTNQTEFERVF
T1 sequence (O60563 whole entry partner): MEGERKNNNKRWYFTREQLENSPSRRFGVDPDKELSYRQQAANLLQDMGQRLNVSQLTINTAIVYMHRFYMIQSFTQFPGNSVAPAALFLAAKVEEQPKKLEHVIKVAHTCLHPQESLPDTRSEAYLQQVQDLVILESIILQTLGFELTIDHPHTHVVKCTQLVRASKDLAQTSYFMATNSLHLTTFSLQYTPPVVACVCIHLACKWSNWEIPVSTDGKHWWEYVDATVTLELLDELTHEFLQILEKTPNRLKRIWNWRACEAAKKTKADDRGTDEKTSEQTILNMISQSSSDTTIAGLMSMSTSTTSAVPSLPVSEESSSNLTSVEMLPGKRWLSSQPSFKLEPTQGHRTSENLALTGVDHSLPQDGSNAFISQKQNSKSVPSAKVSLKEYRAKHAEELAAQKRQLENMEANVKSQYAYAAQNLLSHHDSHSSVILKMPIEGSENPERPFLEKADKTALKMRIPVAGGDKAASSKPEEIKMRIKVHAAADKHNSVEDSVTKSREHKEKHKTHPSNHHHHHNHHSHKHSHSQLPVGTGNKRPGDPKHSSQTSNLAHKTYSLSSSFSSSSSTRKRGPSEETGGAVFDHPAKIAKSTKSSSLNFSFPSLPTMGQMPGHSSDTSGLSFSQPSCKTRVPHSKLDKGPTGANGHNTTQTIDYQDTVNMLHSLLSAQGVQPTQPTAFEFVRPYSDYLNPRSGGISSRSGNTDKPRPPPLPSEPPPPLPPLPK
T1 sequence (Q96SW2 whole entry): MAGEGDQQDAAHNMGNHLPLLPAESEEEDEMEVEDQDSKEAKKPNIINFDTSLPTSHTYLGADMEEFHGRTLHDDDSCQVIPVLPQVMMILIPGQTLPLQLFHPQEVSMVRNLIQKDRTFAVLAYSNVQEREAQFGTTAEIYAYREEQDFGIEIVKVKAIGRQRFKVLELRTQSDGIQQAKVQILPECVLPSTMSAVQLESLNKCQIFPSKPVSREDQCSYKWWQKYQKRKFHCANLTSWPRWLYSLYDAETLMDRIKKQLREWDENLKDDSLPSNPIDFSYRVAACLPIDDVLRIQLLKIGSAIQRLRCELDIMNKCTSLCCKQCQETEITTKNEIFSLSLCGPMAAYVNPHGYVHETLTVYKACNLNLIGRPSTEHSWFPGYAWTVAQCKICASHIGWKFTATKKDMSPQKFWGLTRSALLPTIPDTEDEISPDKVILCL
T1 sequence (Q16531 whole entry partner): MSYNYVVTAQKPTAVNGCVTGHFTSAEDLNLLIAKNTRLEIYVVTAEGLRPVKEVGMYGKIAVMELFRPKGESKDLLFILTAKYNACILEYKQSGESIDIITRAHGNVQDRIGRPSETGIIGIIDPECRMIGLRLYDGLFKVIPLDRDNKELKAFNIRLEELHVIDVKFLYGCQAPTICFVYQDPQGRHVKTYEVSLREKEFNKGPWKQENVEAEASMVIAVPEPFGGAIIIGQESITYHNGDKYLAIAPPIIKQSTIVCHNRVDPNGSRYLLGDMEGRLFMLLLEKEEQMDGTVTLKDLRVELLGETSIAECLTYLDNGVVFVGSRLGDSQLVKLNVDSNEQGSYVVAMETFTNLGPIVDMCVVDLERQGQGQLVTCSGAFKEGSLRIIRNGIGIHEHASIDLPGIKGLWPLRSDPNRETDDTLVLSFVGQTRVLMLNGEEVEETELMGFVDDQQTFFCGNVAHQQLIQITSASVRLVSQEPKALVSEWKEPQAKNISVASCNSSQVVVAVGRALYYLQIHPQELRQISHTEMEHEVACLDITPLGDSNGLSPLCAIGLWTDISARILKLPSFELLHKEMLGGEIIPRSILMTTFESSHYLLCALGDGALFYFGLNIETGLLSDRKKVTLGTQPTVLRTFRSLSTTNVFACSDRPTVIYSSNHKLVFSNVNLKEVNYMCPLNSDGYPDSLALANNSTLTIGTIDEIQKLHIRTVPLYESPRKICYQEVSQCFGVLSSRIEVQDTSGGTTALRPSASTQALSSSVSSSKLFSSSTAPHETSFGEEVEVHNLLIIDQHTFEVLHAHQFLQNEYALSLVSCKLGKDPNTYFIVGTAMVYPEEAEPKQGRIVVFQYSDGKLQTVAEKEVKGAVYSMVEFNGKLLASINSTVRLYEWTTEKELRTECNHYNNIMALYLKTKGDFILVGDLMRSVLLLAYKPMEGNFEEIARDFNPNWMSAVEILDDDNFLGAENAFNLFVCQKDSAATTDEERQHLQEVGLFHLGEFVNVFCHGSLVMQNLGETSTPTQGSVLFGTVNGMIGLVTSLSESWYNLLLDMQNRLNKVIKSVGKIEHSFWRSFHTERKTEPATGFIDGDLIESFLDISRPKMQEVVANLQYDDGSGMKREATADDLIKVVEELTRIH
Experimental for Kinetic solubility assay: Kinetic Solubility Assay. Kinetic solubility (KS) was measured according to Millipore protocol PC2445 EN00. Test compounds were weighed and diluted with DMSO to 10 mM. From the stock solutions as well as blank (100% DMSO) was taken 17.5 μL and diluted to 500 μM with 332.5 μL of 100 mM phosphate Buffered Saline (PPBS) at pH 7.4 in a 96-well quartz plate. From the 500 μM solutions was taken 150 μL and dispensed into a 96-well Millipore filter plate (Product number: MSSLBPC10). In the quartz plate, serial dilutions were performed down to 0.5 μM using the 100 mM PBS solution, leaving 100 μL of each test sample at 11 different concentrations, representing standards. These steps were performed in triplicate, at minimum, for each test compound. Both plates were shaken on an orbital shaker at 150 rpm for 1.5 hours. The contents of the filter plate were filtered and 100 μL of the filtrate from each well was dispensed into the quartz plate containing standards. The quartz plate was then analyzed using a UV plate reader where absorbance was measured at the relevant wavelength for each compound. After blank subtraction, for each test sample, solubility was determined based on the optical density of filtered samples and the equations derived from the corresponding linear standard curve.

With `COc1cc(F)ccc1-c1cc(Nc2cc(CS(C)(=O)=NC(=O)CN3CCN(Cc4cn(CCCOc5cccc6c5C(=O)N(C5CCC(=O)NC5=O)C6=O)nn4)CC3)ccn2)ncc1F` (stereo not drawn) [Compound 4.39, 2-(4-((1-(3-((2-(2,6-dioxopiperidin-3-yl)-1,3-dioxoisoindolin-4-yl)oxy)propyl)-1H-1,2,3-triazol-4-yl)methyl)piperazin-1-yl)-N-(((2-((5-fluoro-4-(4-fluoro-2-methoxyphenyl)pyridin-2-yl)amino)pyridin-4-yl)methyl)(methyl)(oxo)-16-sulfaneylidene)acetamide], in series [1], the “logk′80” value is 0.10. For the same compound, the solubility at 1.5 h in “Kinetic solubility assay” came to 26.5 µM (≈ 24.5 µg/mL). Besides, the IC50 in the series on MOLM13 cells (setting [2]) came out at 830 nM. The compound also gave a DC50 on CDK9 of 640 nM.
As to `COc1cc(F)ccc1-c1cc(Nc2cc(CS(C)(=O)=NC(=O)CN3CCN(Cc4cn(CC(=O)N5CCN(CC#Cc6cccc7c6C(=O)N(C6CCC(=O)NC6=O)C7=O)CC5)nn4)CC3)ccn2)ncc1F` (stereo not drawn) [Compound 4.51, 2-(4-((1-(2-(4-(3-(2-(2,6-dioxopiperidin-3-yl)-1,3-dioxoisoindolin-4-yl)prop-2-yn-1-yl)piperazin-1-yl)-2-oxoethyl)-1H-1,2,3-triazol-4-yl)methyl)piperazin-1-yl)-N-(((2-((5-fluoro-4-(4-fluoro-2-methoxyphenyl)pyridin-2-yl)amino)pyridin-4-yl)methyl)(methyl)(oxo)-16-sulfaneylidene)acetamide], the “logk′80” value in series [1] is reported as 0.09. Also, in the series “Kinetic solubility assay”, the “Solubility” value came to 14.8 µM (≈ 15.3 µg/mL). Also, the concentration for half-maximal inhibition (IC50) in the series with MOLM13 cells (cytotoxicity) was found to be 1540 nM. The compound further had a DC50 at CDK9 of 370 nM.
Turning to `COc1cc(F)ccc1-c1cc(Nc2cc(CS(C)(=O)=NC(=O)CN3CCC(c4cn(C5CN(C(=O)CNc6cccc7c6C(=O)N(C6CCC(=O)NC6=O)C7=O)C5)nn4)CC3)ccn2)ncc1F` (stereo not drawn) [Compound 4.59, 2-(4-(1-(1-((2-(2,6-dioxopiperidin-3-yl)-1,3-dioxoisoindolin-4-yl)glycyl)azetidin-3-yl)-1H-1,2,3-triazol-4-yl)piperidin-1-yl)-N-(((2-((5-fluoro-4-(4-fluoro-2-methoxyphenyl)pyridin-2-yl)amino)pyridin-4-yl)methyl)(methyl)(oxo)-16-sulfaneylidene)acetamide], the “logk′80” value in series [1] amounted to 0.09. Besides, the “Solubility” value in “Kinetic solubility assay” worked out at 5.0 µM (≈ 4.83 µg/mL). Besides, in the series with MOLM13 cells (cytotoxicity), the half-maximal inhibitory concentration (IC50) was 210 nM. On CDK9, this compound returned a DC50 of 110 nM.
Regarding `COc1cc(F)ccc1-c1cc(Nc2cc(CS(C)(=O)=NC(=O)CN3CCC(c4cn(C5CN(c6cccc7c6C(=O)N(C6CCC(=O)NC6=O)C7=O)C5)nn4)CC3)ccn2)ncc1F` (stereo not drawn) [Compound 4.60, 2-(4-(1-(1-(2-(2,6-dioxopiperidin-3-yl)-1,3-dioxoisoindolin-4-yl)azetidin-3-yl)-1H-1,2,3-triazol-4-yl)piperidin-1-yl)-N-(((2-((5-fluoro-4-(4-fluoro-2-methoxyphenyl)pyridin-2-yl)amino)pyridin-4-yl)methyl)(methyl)(oxo)-16-sulfaneylidene)acetamide], in series [1], the “logk′80” value was 0.16. The “Solubility” value in the series “Kinetic solubility assay” turned out to be 4.1 µM (≈ 3.72 µg/mL). Further, the concentration for half-maximal inhibition (IC50) in the series on MOLM13 cells (cytotoxicity) was 1910 nM. The compound also displayed a DC50 on CDK9 of 1660 nM.
For `COc1cc(F)ccc1-c1cc(Nc2cc(CS(C)(=O)=NC(=O)C3CCCN(Cc4cn(CC(=O)N5CCN(CC#Cc6cccc7c6C(=O)N(C6CCC(=O)NC6=O)C7=O)CC5)nn4)C3)ccn2)ncc1F` (stereo not drawn) [Compound 4.64, 1-((1-(2-(4-(3-(2-(2,6-dioxopiperidin-3-yl)-1,3-dioxoisoindolin-4-yl)prop-2-yl-1-yl)piperazin-1-yl)-2-oxoethyl)-1H-1,2,3-triazol-4-yl)methyl)-N-(((2-((5-fluoro-4-(4-fluoro-2-methoxyphenyl)pyridin-2-yl)amino)pyridin-4-yl)methyl)(methyl)(oxo)-16-sulfaneylidene)piperidine-3-carboxamide], in that order: 0.14, 33.0 µM (≈ 33.6 µg/mL), 850 nM and 780 nM.
As to `COc1cc(F)ccc1-c1cc(Nc2cc(CS(C)(=O)=NC(=O)C3CCCN(Cc4cn(CC(=O)N5CCN(CCCc6cccc7c6C(=O)N(C6CCC(=O)NC6=O)C7=O)CC5)nn4)C3)ccn2)ncc1F` (stereo not drawn) [Compound 4.73, 1-({1-[2-(4-{3-[2-(2,6-dioxopiperidin-3-yl)-1,3-dioxo-2,3-dihydro-1H-isoindol-4-yl]propyl}piperazin-1-yl)-2-oxoethyl]-1H-1,2,3-triazol-4-yl}methyl)-N-{[1 (2-{[5-fluoro-4-(4-fluoro-2-methoxyphenyl)pyridin-2-yl]amino}pyridin-4-yl)methyl](methyl)oxo-λ^6-sulfanylidene}piperidine-3-carboxamide], in series [1], the “logk′80” value was found to be 0.13. In addition, the concentration in solution in the series “Kinetic solubility assay” (solubility at 1.5 h) was 3.5 µM (≈ 3.57 µg/mL). The 50% inhibitory concentration (IC50) in the series with MOLM13 cells (setting [2]) came to 700 nM. The 50% degradation concentration (DC50) at CDK9 worked out at 2630 nM.
Consider `COc1cc(F)ccc1-c1cc(Nc2cc(CS(C)(=O)=NC(=O)C3CCCN(Cc4cn(CC(=O)N5CCC(C#Cc6cccc7c6C(=O)N(C6CCC(=O)NC6=O)C7=O)CC5)nn4)C3)ccn2)ncc1F` (stereo not drawn) [Compound 4.75, 1-({1-[2-(4-{2-[2-(2,6-dioxopiperidin-3-yl)-1,3-dioxo-2,3-dihydro-1H-isoindol-4-yl]ethynyl}piperidin-1-yl)-2-oxoethyl]-1H-1,2,3-triazol-4-yl}methyl)-N-{[1 (2-{[5-fluoro-4-(4-fluoro-2-methoxyphenyl)pyridin-2-yl]amino}pyridin-4-yl)methyl](methyl)oxo-λ^6-sulfanylidene}piperidine-3-carboxamide], for which the “logk′80” value in series [1] worked out at 0.18. Moreover, in “Kinetic solubility assay”, the solubility at 1.5 h came to 4.8 µM (≈ 4.81 µg/mL). The half-inhibitory concentration (IC50) in the series on MOLM13 cells (setting [2]) stood at 1480 nM. Moreover, the DC50 on CDK9 stood at 1620 nM.
On to `COc1cc(F)ccc1-c1cc(Nc2cc(CS(C)(=O)=NC(=O)CN3CCC(c4cn(CC5CCN(c6cccc7c6C(=O)N(C6CCC(=O)NC6=O)C7=O)CC5)nn4)CC3)ccn2)ncc1F` (stereo not drawn) [Compound 4.76, 2-{[4-[1-({1-[2-(2,6-dioxopiperidin-3-yl)-1,3-dioxo-2,3-dihydro-1H-isoindol-4-yl]piperidin-4-yl}methyl)-1H-1,2,3-triazol-4-yl]piperidin-1-yl}-N-{[2-{[5-fluoro-4-(4-fluoro-2-methoxyphenyl)pyridin-2-yl]amino}pyridin-4-yl)methyl](methyl)oxoλ^6-sulfanylidene}acetamide], for which the “logk′80” value in series [1] was 0.19. Moreover, the “Solubility” value in “Kinetic solubility assay” came out at 4.7 µM (≈ 4.47 µg/mL). In addition, the 50% inhibitory concentration (IC50) in the series on MOLM13 cells (cytotoxicity) turned out to be 300 nM. At CDK9, this compound registered a DC50 of 240 nM.
In the case of `COc1cc(F)ccc1-c1cc(Nc2cc(CS(C)(=O)=NC(=O)CN3CCC(COc4cccc5c4C(=O)N(C4CCC(=O)NC4=O)C5=O)CC3)ccn2)ncc1F` (stereo not drawn) [Compound 4.79, 2-[4-({[2-(2,6-dioxopiperidin-3-yl)-1,3-dioxo-2,3-dihydro-1H-isoindol-4-yl]oxy}methyl)piperidin-1-yl]-N-{[(2-{[5˜fluoro-4-(4-fluoro-2-methoxyphenyl)pyridin-2-yl]amino}pyridin-4-yl)methyl](methyl)oxo-26-sulfanylidene}acetamide], the “logk′80” value in series [1] came out at 0.20. This compound registered a solubility at 1.5 h in the series “Kinetic solubility assay” of 3.1 µM (≈ 2.53 µg/mL). Further, the half-maximal inhibitory concentration (IC50) in the series on MOLM13 cells (setting [2]) was 190 nM. This compound yielded a half-maximal degradation concentration (DC50) at CDK9 of 360 nM.
